The values that follow come from article PMC10894092, “Characterization of a recombinant Aspergillus niger GZUF36 lipase immobilized by ionic liquid modification strategy” (Applied Microbiology and Biotechnology, 2024).

The structures appear in SMILES notation.

The test system of the assay is T1, PEXANL1.
T1 construct: gene EXANL1; recombinant extracellular lipase, secreted/purified from Pichia pastoris GS115
Briefly: p-nitrophenol release at […] nm, Lineweaver-Burk. It counts as biochemical, Aspergillus niger. The conditions noted are these: free enzyme; pH 5.0, 45 °C; 5-30 mM substrate range; phosphate-citrate buffer, substrate stock in 2-propanol.

For the compound `CCCCCCCCCCCCCCCC(=O)Oc1ccc([N+](=O)[O-])cc1` [p-nitrophenyl palmitate], the Michaelis constant (Km) turned out to be 2650 µM.
